Experiments:
AsPC-1 (G12D) = assay: In vitro cell proliferation inhibition test (CellTiter-Glo Luminescent Cell Viability Assay); assay type: cell-based; settings: AsPC-1 cell line, Pancreas, KRAS (p.G12D), cells and compounds co-incubated 72 hours
Method in brief: (§1)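 Cells were seeded at 1000-5000/well and cultured overnight, then exposed to compound (top final 10 µM, ten 3-fold dilutions) for 72 h at 37°C, 5% CO2. Viability was read by CellTiter-Glo luminescence; IC50 was obtained from four-parameter fits of normalized signal.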

SW480 (G12V) = assay: as above; assay type: cell-based; settings: SW480 cell line, Large intestine, Colon, KRAS (p.G12V), cells and compounds co-incubated 72 hours
Method in brief: as §1

Molecule	IC50 (AsPC-1 (G12D))	IC50 (SW480 (G12V))	other results
CCn1c(-c2cc(C#CC3CN(C)CCO3)cnc2C(C)OC)c2c3cc(ccc31)-c1csc(n1)CC(NC(=O)C1CC1C)C(=O)N1CCCC(N1)C(=O)OCC(C)(C)C2 (single isomer, unassigned) [Example 8]	17.9 nM	18.9 nM	IC50 (AsPC-1 (G12D); listed as 8'): 3870 nM; IC50 (SW480 (G12V); listed as 8'): 2030 nM
CCn1c(-c2cc(C#Cc3cncnc3N)cnc2C(C)OC)c2c3cc(ccc31)-c1csc(n1)CC(NC(=O)C1C(C)C1C)C(=O)N1CCCC(N1)C(=O)OCC(C)(C)C2 [Example 34, (1r,2R,3S)-N-((6^3S,4S,Z)-1^2-(5-((4-aminopyrimidin-5-yl)ethynyl)-2-((S)-1-methoxyethyl)pyridin-3-yl)-1^1-ethyl-10,10-dimethyl-5,7-dioxo-6^1,6^2,6^3,6^4,6^5,6^6-hexahydro-1^1H-8-oxa-2(4,2)-thiazola-1(5,3)-indola-6(1,3)-pyridazinacycloundecaphane-4-yl)-2,3-dimethylcyclopropane-1-carboxamide]	1.3 nM	0.75 nM	
(1S,2S)-N-((6^3S,4S,Z)-1^2-(5-(3-(1,1-dioxidothiomorpholino)prop-1-yn-1-yl)-2-((S)-1-methoxyethyl)pyridin-3-yl)-1^1-ethyl-10,10-dimethyl-5,7-dioxo-6^1,6^2,6^3,6^4,6^5,6^6-hexahydro-1^1H-8-oxa-2(4,2)-thiazola-1(5,3)-indola-6(1,3)-pyridazinacycloundecaphane-4-yl)-2-methylcyclopropane-1-carboxamide [Example 43]	0.42 nM	0.68 nM	
CCNc1cccc(C#Cc2cnc([C@H](C)OC)c(-c3c4c5cc(ccc5n3CC)-c3csc(n3)C[C@H](NC(=O)[C@H]3C[C@@H]3C)C(=O)N3CCC[C@H](N3)C(=O)OCC(C)(C)C4)c2)n1 (single isomer, unassigned) [Example 31]	78 nM	100 nM	
CCn1c(-c2cc(C#Cc3ccccn3)cnc2[C@H](C)OC)c2c3cc(ccc31)-c1csc(n1)C[C@H](NC(=O)[C@H]1C[C@@H]1C)C(=O)N1CCC[C@H](N1)C(=O)OCC(C)(C)C2 [Example 16, (1S,2S)-N-((63S,4S,Z)-11-ethyl-12-(2-((S)-1-methoxyethyl)-5-(pyridin-2-ylethynyl)pyridin-3-yl)-10,10-dimethyl-5,7-dioxo-61,62,63,64,65,66-hexahydro-11H-8-oxa-2(4,2)-thiazola-1(5,3)-indola-6(1,3)-pyridazinacyclonecaphane-4-yl)-2-methylcyclopropane-1-carboxamide]	38.8 nM	28.8 nM	IC50 (AsPC-1 (G12D); listed as 16'): 591 nM; IC50 (SW480 (G12V); listed as 16'): 584 nM
CCn1c(-c2cc(C#CCN3CCOCC3)cnc2C(C)OC)c2c3cc(ccc31)-c1csc(n1)CC(NC(=O)C1CC1F)C(=O)N1CCCC(N1)C(=O)OCC(C)(C)C2 (single isomer, unassigned) [Example 24]	24.2 nM	58.4 nM	
CCn1c(-c2cc(C#CC3CCNCC3)cnc2[C@H](C)OC)c2c3cc(ccc31)-c1csc(n1)C[C@H](NC(=O)[C@H]1C[C@@H]1C)C(=O)N1CCC[C@H](N1)C(=O)OCC(C)(C)C2 [Example 48, (1S,2S)-N-((6^3S,4S,Z)-1^1-ethyl-1^2-(2-((S)-1-methoxyethyl)-5-(piperidin-4-ylethynyl)pyridin-3-yl)-10,10-dimethyl-5,7-dioxo-6^1,6^2,6^3,6^4,6^5,6^6-hexahydro-1^1H-8-oxa-2(4,2)-thiazola-1(5,3)-indola-6(1,3)-pyridazinacycloundecaphane-4-yl)-2-methylcyclopropane-1-carboxamide]	5.4 nM	1.7 nM	
CCn1c(-c2cc(C#Cc3cccnc3)cnc2C(C)OC)c2c3cc(ccc31)-c1csc(n1)CC(NC(=O)C1CC1C)C(=O)N1CCCC(N1)C(=O)OCC(C)(C)C2 [Example 17, (1S,2S)-N-((63S,4S,Z)-11-ethyl-12-(2-((S)-1-methoxyethyl)-5-(pyridin-3-ylethynyl)pyridin-3-yl)-10,10-dimethyl-5,7-dioxo-61,62,63,64,65,66-hexahydro-11H-8-oxa-2(4,2)-thiazola-1(5,3)-indola-6(1,3)-pyridazinacyclonecaphane-4-yl)-2-methylcyclopropane-1-carboxamide]	37.8 nM	30.2 nM	IC50 (AsPC-1 (G12D); listed as 17'): 700 nM; IC50 (SW480 (G12V); listed as 17'): 474 nM
CCn1c(-c2cc(C#Cc3cnccn3)cnc2[C@H](C)OC)c2c3cc(ccc31)-c1csc(n1)C[C@H](NC(=O)[C@H]1C[C@@H]1C)C(=O)N1CCC[C@H](N1)C(=O)OCC(C)(C)C2 (single isomer, unassigned) [Example 27]	4.6 nM	14.5 nM	
(1S,2S)-N-((6^3S,4S,Z)-1^2-(5-(3-(dimethylamino)prop-1-yn-1-yl)-2-((S)-1-methoxyethyl)pyridin-3-yl)-1^1-ethyl-10,10-dimethyl-5,7-dioxo-6^1,6^2,6^3,6^4,6^5,6^6-hexahydro-1^1H-8-oxa-2(4,2)-thiazola-1(5,3)-indola-6(1,3)-pyridazinacycloundecaphane-4-yl)-2-methylcyclopropane-1-carboxamide [Example 61]	5 nM	1.58 nM	
CCNc1ccc(C#Cc2cnc(C(C)OC)c(-c3c4c5cc(ccc5n3CC)-c3csc(n3)CC(NC(=O)C3C(C)C3C)C(=O)N3CCCC(N3)C(=O)OCC(C)(C)C4)c2)nn1 [32+32, (1r,2R,3S)-N-((6^3S,4S,Z)-1^1-ethyl-1^2-(5-((6-(ethylamino)pyridazin-3-yl)ethynyl)-2-((S)-1-methoxyethyl)pyridin-3-yl)-10,10-dimethyl-5,7-dioxo-6^1,6^2,6^3,6^4,6^5,6^6-hexahydro-1^1H-8-oxa-2(4,2)-thiazola-1(5,3)-indola-6(1,3)-pyridazinacycloundecaphane-4-yl)-2,3-dimethylcyclopropane-1-carboxamide]	15.3 nM	55.4 nM	
CCn1c(-c2cc(C#Cc3cccc4c3CN(C)C4)cnc2[C@H](C)OC)c2c3cc(ccc31)-c1csc(n1)C[C@H](NC(=O)[C@H]1C[C@@H]1C)C(=O)N1CCC[C@H](N1)C(=O)OCC(C)(C)C2 (single isomer, unassigned) [Example 30]	8.2 nM	84.2 nM	
CCn1c(-c2cc(C#CCN3CCOCC3)cnc2[C@H](C)OC)c2c3cc(ccc31)-c1csc(n1)C[C@H](NC(=O)[C@H]1[C@H](C)[C@@H]1C)C(=O)N1CCC[C@H](N1)C(=O)OCC(C)(C)C2 [Example 2, (1r,2R,3S)-N-((63S,4S,Z)-11-ethyl-12-(2-((S)-1-methoxyethyl)-5-(3-morpholinoprop-1-yn-1-yl)pyridin-3-yl)-10,10-dimethyl-5,7-dioxo-61,62,63,64,65,66-hexahydro-11H-8-oxa-2(4,2)-thiazola-1(5,3)-indola-6(1,3)-pyridazinacycloundecaphane-4-yl)-2,3-dimethylcyclopropane-1-carboxamide]	0.25 nM	0.33 nM	IC50 (AsPC-1 (G12D); listed as 2'): 172 nM; IC50 (SW480 (G12V); listed as 2'): 74 nM
(1r,2R,3S)-N-((6^3S,4S,Z)-12-(5-(3-((S)-3-(ethoxymethyl)morpholino)prop-1-yn-1-yl)-2-((S)-1-methoxyethyl)pyridin-3-yl)-1^1-ethyl-10,10-dimethyl-5,7-dioxo-6^1,6^2,6^3,6^4,6^5,6^6-hexahydro-1^1H-8-oxa-2(4,2)-thiazola-1(5,3)-indola-6(1,3)-pyridazinacycloundecaphane-4-yl)-2,3-dimethylcyclopropane-1-carboxamide [Example 37]	1.01 nM	0.68 nM	
CCn1c(-c2cc(C#CCN3CCC4(CC3)CN(C)C4)cnc2[C@H](C)OC)c2c3cc(ccc31)-c1csc(n1)C[C@H](NC(=O)[C@H]1C[C@@H]1C)C(=O)N1CCC[C@H](N1)C(=O)OCC(C)(C)C2 [Example 50, (1S,2S)-N-((6^3S,4S,Z)-1^1-ethyl-1^2-(2-((S)-1-methoxyethyl)-5-(3-(2-methyl-2,7-diazaspiro[3.5]nonan-7-yl)prop-1-yn-1-yl)pyridin-3-yl)-10,10-dimethyl-5,7-dioxo-6^1,6^2,6^3,6^4,6^5,6^6-hexahydro-1^1H-8-oxa-2(4,2)-thiazola-1(5,3)-indola-6(1,3)-pyridazinacycloundecaphane-4-yl)-2-methylcyclopropane-1-carboxamide]	1.2 nM	15.2 nM	
CCn1c(-c2cc(C#CCN(C)C3CCOCC3)cnc2C(C)OC)c2c3cc(ccc31)-c1csc(n1)CC(NC(=O)C1C(C)C1C)C(=O)N1CCCC(N1)C(=O)OCC(C)(C)C2 [Example 36, (1r,2R,3S)-N-((6^3S,4S,Z)-1^1-ethyl-1^2-(2-((S)-1-methoxyethyl)-5-(3-(methyl(tetrahydro-2H-pyran-4-yl)amino)prop-1-yn-1-yl)pyridin-3-yl)-10,10-dimethyl-5,7-dioxo-6^1,6^2,6^3,6^4,6^5,6^6-hexahydro-1^1H-8-oxa-2(4,2)-thiazola-1(5,3)-indola-6(1,3)-pyridazinacycloundecaphane-4-yl)-2,3-dimethylcyclopropane-1-carboxamide]	0.73 nM	0.54 nM	

Reference: patent EP4582426A1, “PAN-KRAS INHIBITOR COMPOUND” (Adlai Nortye Biopharma Co., Ltd., priority 2022, dated 2024)
